Reference: patent US20250101038A1, “COMPOUNDS” (priority 2021, published 2025)
pEC50: −log10 of the molar value. Where two headings read alike, the source gives them in different places.

Key:
5-HT2A receptor = molecular target: T1, 5-HT2A receptor (Homo sapiens, UniProt P28223); experiment: FLIPR Ca2+ flux functional assay, 5-HT2A; format: cell-based
T1 construct: host or cells: HEK293
Experimental: Activity at 5-HT2A, 5-HT2B and 5-HT2C receptors was determined using a FLIPR Ca^2+ flux assay at WuXi AppTec Co. Ltd. (Hong Kong) Discovery Biology Unit according to their standard protocols. Briefly, stably transfected cells expressing the receptor of interest (HEK293 for 5-HT2A and 5-HT2C; CHO-K1 for 5-HT2B) were grown and plated in a 384 well plate and incubated at 37° C. and 5% CO2 overnight. A 250 mM stock solution of probenecid in FLIPR calcium assay buffer (10 mL) was freshly prepared and combined with a fluorescent dye (Fluo-4 Direct) to give a final assay concentration of 2.5 mM. Reference compounds were 4-fold serially diluted and the screening compounds were 3-fold serially diluted in 100% DMSO for 10 points using Agilent Bravo, and 750 nL was added to a 384 well compound plate using Echo along with 30 μL assay buffer. The fluorescent dye was then added to the assay plate along with assay buffer to a final volume of […]. The cell plate was incubated for 50 min at 37° C. and 5% CO2 and placed into the FLIPR Tetra along with the compound plate. 10 μL of references and compounds were then transferred from the compound plate into the cell plate and the fluorescent signal was read.

5-HT2B receptor = molecular target: T2, 5-HT2B receptor (Homo sapiens, UniProt P41595); experiment: cell-based
T2 construct: host or cells: CHO-K1

5-HT2C receptor = molecular target: T3, 5-HT2C receptor (Homo sapiens, UniProt P28335); experiment: cell-based
T3 construct: host or cells: HEK293
T3 sequence (P28335 33-458): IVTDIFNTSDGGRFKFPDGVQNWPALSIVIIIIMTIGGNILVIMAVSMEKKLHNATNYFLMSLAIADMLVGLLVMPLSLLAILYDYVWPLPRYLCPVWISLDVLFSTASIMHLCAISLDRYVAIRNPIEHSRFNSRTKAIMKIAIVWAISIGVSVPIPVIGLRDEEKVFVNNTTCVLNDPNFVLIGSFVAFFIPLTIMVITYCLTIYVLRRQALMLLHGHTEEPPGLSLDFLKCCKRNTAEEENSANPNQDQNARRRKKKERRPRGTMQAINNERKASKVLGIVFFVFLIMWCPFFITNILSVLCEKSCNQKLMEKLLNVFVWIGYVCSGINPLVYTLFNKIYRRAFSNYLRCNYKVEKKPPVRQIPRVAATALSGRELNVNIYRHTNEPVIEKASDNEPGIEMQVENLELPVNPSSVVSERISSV

[1] = agonist activity, Ca2+ flux, HEK293 cells
[2] = agonist activity, Ca2+ flux, HEK293 cells, read-out: 5-HT2A EC50
[3] = agonist activity, Ca2+ flux, CHO-K1 cells
[4] = agonist activity, Ca2+ flux, CHO-K1 cells, read-out: 5-HT2B EC50
[5] = agonist activity, Ca2+ flux, HEK293 cells, read-out: 5-HT2C EC50

T1 sequence (P28223 whole entry): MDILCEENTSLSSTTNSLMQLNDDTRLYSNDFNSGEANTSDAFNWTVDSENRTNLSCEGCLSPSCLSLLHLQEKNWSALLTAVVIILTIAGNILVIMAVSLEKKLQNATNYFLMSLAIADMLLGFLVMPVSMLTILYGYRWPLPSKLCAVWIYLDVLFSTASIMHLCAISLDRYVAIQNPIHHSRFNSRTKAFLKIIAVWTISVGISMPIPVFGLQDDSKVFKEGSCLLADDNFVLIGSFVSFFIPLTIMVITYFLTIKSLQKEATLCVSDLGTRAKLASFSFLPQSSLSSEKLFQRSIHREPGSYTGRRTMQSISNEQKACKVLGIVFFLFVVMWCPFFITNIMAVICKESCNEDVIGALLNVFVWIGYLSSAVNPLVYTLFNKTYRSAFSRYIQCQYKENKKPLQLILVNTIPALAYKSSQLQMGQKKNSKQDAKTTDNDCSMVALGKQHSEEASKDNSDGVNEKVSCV
T2 sequence (P41595 whole entry): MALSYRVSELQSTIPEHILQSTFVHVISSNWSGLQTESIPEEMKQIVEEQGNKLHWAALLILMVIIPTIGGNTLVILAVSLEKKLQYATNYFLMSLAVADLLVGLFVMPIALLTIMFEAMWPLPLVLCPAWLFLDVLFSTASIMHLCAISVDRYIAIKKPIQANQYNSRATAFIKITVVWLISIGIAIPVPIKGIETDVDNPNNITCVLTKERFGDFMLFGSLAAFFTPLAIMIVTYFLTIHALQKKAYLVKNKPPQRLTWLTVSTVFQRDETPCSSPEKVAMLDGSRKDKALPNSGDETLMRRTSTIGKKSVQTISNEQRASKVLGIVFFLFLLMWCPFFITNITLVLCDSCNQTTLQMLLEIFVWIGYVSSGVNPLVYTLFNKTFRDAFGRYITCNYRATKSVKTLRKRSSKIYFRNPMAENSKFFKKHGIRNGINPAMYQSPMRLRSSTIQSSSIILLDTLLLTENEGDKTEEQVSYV

COc1c(F)ccc2[nH]cc(CCN(C(C)C)C(C)C)c12 [Example P-95, N-(2-(5-fluoro-4-methoxy-1H-indol-3-yl)ethyl)-N-isopropylpropan-2-amine]
Emax (5-HT2A receptor; [1]): 93.2% | pEC50 (5-HT2A receptor; [2]): 7.70 | Emax (5-HT2B receptor; [3]): 96.3% | pEC50 (5-HT2B receptor; [4]): 7.67 | Emax (5-HT2C receptor; [1]): 83% | pEC50 (5-HT2C receptor; [5]): 6.59

CCN(C)CCc1c[nH]c2cc(F)cc(OC)c12 [Example P-96, N-ethyl-2-(6-fluoro-4-methoxy-1H-indol-3-yl)-N-methylethan-1-amine]
Emax (5-HT2A receptor; [1]): 73.6% | pEC50 (5-HT2A receptor; [2]): 8.10 | Emax (5-HT2B receptor; [3]): 19.6% | pEC50 (5-HT2B receptor; [4]): < 5.00 | Emax (5-HT2C receptor; [1]): 79.6% | pEC50 (5-HT2C receptor; [5]): 7.22

COc1cc(F)cc2[nH]cc(CCN(C)C(C)C)c12 [Example P-97, N-(2-(6-fluoro-4-methoxy-1H-indol-3-yl)ethyl)-N-methylpropan-2-amine]
Emax (5-HT2A receptor; [1]): 65.4% | pEC50 (5-HT2A receptor; [2]): 8.17 | Emax (5-HT2B receptor; [3]): 14.2% | pEC50 (5-HT2B receptor; [4]): < 5.00 | Emax (5-HT2C receptor; [1]): 59.8% | pEC50 (5-HT2C receptor; [5]): 6.47

CCN(CC)CCc1c[nH]c2cc(F)cc(OC)c12 [Example P-98, N,N-diethyl-2-(6-fluoro-4-methoxy-1H-indol-3-yl)ethan-1-amine]
Emax (5-HT2A receptor; [1]): 64.3% | pEC50 (5-HT2A receptor; [2]): 7.80 | Emax (5-HT2B receptor; [3]): 63.6% | pEC50 (5-HT2B receptor; [4]): 5.26 | Emax (5-HT2C receptor; [1]): 71.8% | pEC50 (5-HT2C receptor; [5]): 6.51

CCN(CCc1c[nH]c2cc(F)cc(OC)c12)C(C)C [Example P-99, N-ethyl-N-(2-(6-fluoro-4-methoxy-1H-indol-3-yl)ethyl)propan-2-amine]
Emax (5-HT2A receptor; [1]): 81.4% | pEC50 (5-HT2A receptor; [2]): 7.51 | Emax (5-HT2B receptor; [3]): 116% | pEC50 (5-HT2B receptor; [4]): 6.04 | Emax (5-HT2C receptor; [1]): 79.3% | pEC50 (5-HT2C receptor; [5]): 6.12

COc1cc(F)cc2[nH]cc(CCN(C(C)C)C(C)C)c12 [Example P-100, N-(2-(6-fluoro-4-methoxy-1H-indol-3-yl)ethyl)-N-isopropylpropan-2-amine]
Emax (5-HT2A receptor; [1]): 91.3% | pEC50 (5-HT2A receptor; [2]): 7.29 | Emax (5-HT2B receptor; [3]): 128% | pEC50 (5-HT2B receptor; [4]): 6.36 | Emax (5-HT2C receptor; [1]): 76.9% | pEC50 (5-HT2C receptor; [5]): 6.06

COc1ccc(F)c2[nH]cc(CCN(C)C)c12 [Example P-101, 2-(7-fluoro-4-methoxy-1H-indol-3-yl)-N,N-dimethylethan-1-amine]
Emax (5-HT2A receptor; [1]): 71.6% | pEC50 (5-HT2A receptor; [2]): 8.42 | Emax (5-HT2B receptor; [3]): 4.06% | pEC50 (5-HT2B receptor; [4]): < 5.00 | Emax (5-HT2C receptor; [1]): 53.1% | pEC50 (5-HT2C receptor; [5]): 8.08

CCN(C)CCc1c[nH]c2c(F)ccc(OC)c12 [Example P-102, N-ethyl-2-(7-fluoro-4-methoxy-1H-indol-3-yl)-N-methylethan-1-amine]
Emax (5-HT2A receptor; [1]): 60.8% | pEC50 (5-HT2A receptor; [2]): 7.82 | Emax (5-HT2B receptor; [3]): 3.44% | pEC50 (5-HT2B receptor; [4]): < 5.00 | Emax (5-HT2C receptor; [1]): 47.5% | pEC50 (5-HT2C receptor; [5]): 6.81

COc1ccc(F)c2[nH]cc(CCN(C)C(C)C)c12 [Example P-103, N-(2-(7-fluoro-4-methoxy-1H-indol-3-yl)ethyl)-N-methylpropan-2-amine]
Emax (5-HT2A receptor; [1]): 61.8% | pEC50 (5-HT2A receptor; [2]): 7.46 | Emax (5-HT2B receptor; [3]): 3.67% | pEC50 (5-HT2B receptor; [4]): < 5.00 | Emax (5-HT2C receptor; [1]): 7.02% | pEC50 (5-HT2C receptor; [5]): < 5.00

CCN(CC)CCc1c[nH]c2c(F)ccc(OC)c12 [Example P-104, N,N-diethyl-2-(7-fluoro-4-methoxy-1H-indol-3-yl)ethan-1-amine]
Emax (5-HT2A receptor; [1]): 77.5% | pEC50 (5-HT2A receptor; [2]): 7.55 | Emax (5-HT2B receptor; [3]): 13.1% | pEC50 (5-HT2B receptor; [4]): < 5.00 | Emax (5-HT2C receptor; [1]): 52.5% | pEC50 (5-HT2C receptor; [5]): 5.09

COc1ccc(F)c2[nH]cc(CCN(C(C)C)C(C)C)c12 [Example P-105, N-(2-(7-fluoro-4-methoxy-1H-indol-3-yl)ethyl)-N-isopropylpropan-2-amine]
Emax (5-HT2A receptor; [1]): 91.2% | pEC50 (5-HT2A receptor; [2]): 6.83 | Emax (5-HT2B receptor; [3]): 127% | pEC50 (5-HT2B receptor; [4]): 6.87 | Emax (5-HT2C receptor; [1]): 92.6% | pEC50 (5-HT2C receptor; [5]): 5.92

CCN(C)CCc1c[nH]c2c(F)cc(OC)cc12 [Example P-115, N-ethyl-2-(7-fluoro-5-methoxy-1H-indol-3-yl)-N-methylethan-1-amine]
Emax (5-HT2A receptor; [1]): 85.6% | Emax (5-HT2B receptor; [3]): 16.4% | Emax (5-HT2C receptor; [1]): 81.7%

COc1cc(F)c2[nH]cc(CCN(C)C(C)C)c2c1 [Example P-116, N-(2-(7-fluoro-5-methoxy-1H-indol-3-yl)ethyl)-N-methylpropan-2-amine]
Emax (5-HT2A receptor; [1]): 60.2% | pEC50 (5-HT2A receptor; [2]): 7.80 | Emax (5-HT2B receptor; [3]): 23.1% | pEC50 (5-HT2B receptor; [4]): 6.87 | Emax (5-HT2C receptor; [1]): 60.5% | pEC50 (5-HT2C receptor; [5]): 6.14

CCN(CC)CCc1c[nH]c2c(F)cc(OC)cc12 [Example P-117, N,N-diethyl-2-(7-fluoro-5-methoxy-1H-indol-3-yl)ethan-1-amine]
Emax (5-HT2A receptor; [1]): 95.8% | Emax (5-HT2B receptor; [3]): 41.2% | Emax (5-HT2C receptor; [1]): 81.5%

COc1cc(F)c2[nH]cc(CCN(C(C)C)C(C)C)c2c1 [Example P-118, N-(2-(7-fluoro-5-methoxy-1H-indol-3-yl)ethyl)-N-isopropylpropan-2-amine]
Emax (5-HT2A receptor; [1]): 82.2% | pEC50 (5-HT2A receptor; [2]): 7.76 | Emax (5-HT2B receptor; [3]): 95.2% | pEC50 (5-HT2B receptor; [4]): 7.18 | Emax (5-HT2C receptor; [1]): 97.1% | pEC50 (5-HT2C receptor; [5]): 6.16

CN(C)CCc1c[nH]c2ccc3oc(=O)[nH]c3c12 [Example P-125, 8-(2-(dimethylamino)ethyl)-1,6-dihydro-2H-oxazolo[4,5-e]indol-2-one]
pEC50 (5-HT2A receptor): 7.31 | Emax (5-HT2A receptor; [1]): 75.5% | pEC50 (5-HT2B receptor): 7.84 | Emax (5-HT2B receptor; [3]): 42.5% | pEC50 (5-HT2C receptor): 6.27 | Emax (5-HT2C receptor; [1]): 56.7%

CCN(C)CCc1c[nH]c2ccc3ocnc3c12 [Example P-127, N-ethyl-N-methyl-2-(6H-oxazolo[4,5-e]indol-8-yl)ethan-1-amine]
pEC50 (5-HT2A receptor): 7.92 | Emax (5-HT2A receptor; [1]): 54% | pEC50 (5-HT2B receptor): < 5.00 | Emax (5-HT2B receptor; [3]): 10.5% | pEC50 (5-HT2C receptor): 7.51 | Emax (5-HT2C receptor; [1]): 70.5%

CC(C)N(C)CCc1c[nH]c2ccc3ocnc3c12 [Example P-128, N-(2-(6H-oxazolo[4,5-e]indol-8-yl)ethyl)-N-methylpropan-2-amine]
Emax (5-HT2A receptor; [1]): 83.8% | pEC50 (5-HT2A receptor; [2]): 7.84 | Emax (5-HT2B receptor; [3]): 16.8% | pEC50 (5-HT2B receptor; [4]): < 5.00 | Emax (5-HT2C receptor; [1]): 58% | pEC50 (5-HT2C receptor; [5]): 7.17

CCN(CC)CCc1c[nH]c2ccc3ocnc3c12 [Example P-129, N,N-diethyl-2-(6H-oxazolo[4,5-e]indol-8-yl)ethan-1-amine]
pEC50 (5-HT2A receptor): 7.84 | Emax (5-HT2A receptor; [1]): 64% | pEC50 (5-HT2B receptor): 7.83 | Emax (5-HT2B receptor; [3]): 41.1% | pEC50 (5-HT2C receptor): 7.14 | Emax (5-HT2C receptor; [1]): 93.1%

CC(C)N(CCc1c[nH]c2ccc3ocnc3c12)C(C)C [Example P-130, N-(2-(6H-oxazolo[4,5-e]indol-8-yl)ethyl)-N-isopropylpropan-2-amine]
Emax (5-HT2A receptor; [1]): 87.5% | pEC50 (5-HT2A receptor; [2]): 7.74 | Emax (5-HT2B receptor; [3]): 114% | pEC50 (5-HT2B receptor; [4]): 8.12 | Emax (5-HT2C receptor; [1]): 104% | pEC50 (5-HT2C receptor; [5]): 6.69

Cc1nc2c(ccc3[nH]cc(CCN(C)C)c32)o1 [Example P-131, N,N-dimethyl-2-(2-methyl-6H-oxazolo[4,5-e]indol-8-yl)ethan-1-amine]
pEC50 (5-HT2A receptor): 7.98 | Emax (5-HT2A receptor; [1]): 97.2% | pEC50 (5-HT2B receptor): < 5.00 | Emax (5-HT2B receptor; [3]): 3.93% | pEC50 (5-HT2C receptor): 7.80 | Emax (5-HT2C receptor; [1]): 90.1%

CCN(C)CCc1c[nH]c2ccc3oc(C)nc3c12 [Example P-132, N-ethyl-N-methyl-2-(2-methyl-6H-oxazolo[4,5-e]indol-8-yl)ethan-1-amine]
pEC50 (5-HT2A receptor): 7.69 | Emax (5-HT2A receptor; [1]): 69.1% | pEC50 (5-HT2B receptor): < 5.00 | Emax (5-HT2B receptor; [3]): 11.4% | pEC50 (5-HT2C receptor): 6.75 | Emax (5-HT2C receptor; [1]): 85.7%

Cc1nc2c(ccc3[nH]cc(CCN(C)C(C)C)c32)o1 [Example P-133, N-methyl-N-(2-(2-methyl-6H-oxazolo[4,5-e]indol-8-yl)ethyl)propan-2-amine]
Emax (5-HT2A receptor; [1]): 78.4% | pEC50 (5-HT2A receptor; [2]): 7.55 | Emax (5-HT2B receptor; [3]): 22.4% | pEC50 (5-HT2B receptor; [4]): 7.16 | Emax (5-HT2C receptor; [1]): 72.6% | pEC50 (5-HT2C receptor; [5]): 6.05
